Data from patent US5071849A, “Dihydropyrimidothiazine derivatives” (priority 1989, dated 1991).
Like-named read-outs stand apart in the source and are kept apart here.

Columns and labels:
in vivo = details: mouse, po
Method: White mice belonging to the CFLP strain (body weight 18-22 g; both male and female) are used, 10 animals for each dose. The test compound is administered orally in a volume of 20 ml/kg. […] The mice are kept in a plastic cage at room temperature. The animals get tap water and standard mouse fodder ad libitum.

[1] = tested on: carrageen - induced oedema; test: Inhibition of carrageen-induced oedema on rats; assay type: in vivo; details: for ED30: Rattus norvegicus, po, read-out: ID30 (dose resulting in an inhibition of 30%); for Therapeutical index: Table III, LD50 and ID30
Method: The antiinflammatory effect of the novel compounds of the invention was investigated on rats weighing 150 to 180 g. 0.1 ml of a 1 per cent carrageen suspension was injected subcutaneously into the plantar region of one of the hind paws. Rats were fasted for 12 hours and received drinking water ad libitum. One hour before treatment with the test compound animals were hydrated orally with 30 ml/kg of tap water. The test compounds or the vehicle were administered p.o. in a volume of 10 ml/kg, then two hours later carrageen was applied. The volume of the treated paw was measured by mercury-plethysmometer before and 3 hours after injection in such a way that displacement of the liquid arising from the volume alteration was indicated on a millimeter scale. The volumes of the treated paws were compared with those of the control group.

Hexobarbital narcosis = Hexobarbital narcosis on mice; assay type: in vivo; details: for ED50: Mus musculus, po, mice, p.o., 1 hour before Hexobarbital 40 mg/kg i.v., sleeping time more than 2.5 times longer than control; for Therapeutical index: Table IV, hexobarbital narcosis on mice
Method: Groups consisting of 6 mice are used for each dose. The animals are treated orally with the test compound, whereby sleeping is induced 1 hour later by administering a 40 mg/kg i.v. dose of Hexobarbital both to the test and control groups.
ED50 values are calculated from the thus-transformed data.

[2] = tested on: experimental coronaria insufficiency induced with vasopressin; test: Antianginal effect: vasopressin-induced experimental coronaria insufficiency, ECG wave T; assay type: in vivo; details: Rattus norvegicus; rats, iv., 2 minutes prior to vasopressin
Method: Male rats of 180-220 g body weight were narcotised with chloralese-urethane (70/700 mg/kg ip.). The ECG was registered with needle electrodes in standard II leading. The experimental coronaria insufficiency was induced with vasopressin (4 NE/kg i.v.). The height of wave T in ECG was measured before and after the administration of vasopressin in both the control and treated groups. Test compounds were administered intravenously 2 minutes prior to the treatment with vasopressin.

[3] = rats, p.o., two hours before carrageen, paw volume 3 hours after injection

Row | Compound | LD50 at 336 h (in vivo) | ED30 [1, 3] | Therapeutical index [1] | other results
1 | CCOC(=O)C1=C(c2ccccc2)N=C2SCCCN2C1c1c(F)cccc1Cl (stereo not drawn) [Example 12] | > 1000 mg/kg |  |  | 
2 | CCOC(=O)C1=C(C)N=C2SCCCN2C1c1ccccc1 (stereo not drawn) [Example 1, Ethyl-(6-phenyl-8-methyl-3,4-dihydro-2H,6H-pyrimido-[2,1-b][1,3]thiazine-7-carboxylate)] | 580 mg/kg |  |  | 
3 | COC(=O)C1=C(C)N=C2SCC(C)CN2C1c1ccc(Cl)c([N+](=O)[O-])c1 (stereo not drawn) [Example 9] | > 1000 mg/kg |  |  | 
4 | COC(=O)C1=C(C)N=C2SCCCN2C1c1cc(OC)c(OC)c(OC)c1 (stereo not drawn) [Example 18, Methyl-[8-methyl-6-(3,4,5-trimethoxyphenyl)-3,4-dihydro-2H,6H-pyrimido[2,1-b][1,3]thiazine-7-carboxylate]] | > 1000 mg/kg | 110 mg/kg | > 9.1 | 
5 | CC1=C(C(=O)Nc2ccccc2)C(c2c(F)cccc2Cl)N2CCCSC2=N1 (stereo not drawn) [Example 6, 6-(2-Fluoro-6-chlorophenyl)-8-methyl-3,4-dihydro-2H,6H-pyrimido[2,1-b][1,3]thiazine-7-carboxylic anilide] | > 1000 mg/kg |  |  | ED50 (Hexobarbital narcosis): 25 mg/kg; Therapeutical index (Hexobarbital narcosis): 40.0
6 | CC(Cc1ccccc1)NCCC(c1ccccc1)c1ccccc1 (stereo not drawn) [Prenylamine, reference compound] |  |  |  | ED50 [2]: 6.5 mg/kg
7 | CCOC(=O)C1=C(C)N=C2SCCCN2C1c1ccc(OC)cc1 (stereo not drawn) [Example 7, Ethyl-[8-methyl-6-(4-methoxyphenyl)-3,4-dihydro2H,6H-pyrimido[2,1-b][1,3]thiazine-7-carboxylate]] | 600 mg/kg |  |  | ED50 [2]: 1.87 mg/kg
8 | COC(=O)C1=C(C)N=C2SCCCN2C1c1ccc(Cl)c(Cl)c1 (stereo not drawn) [Example 16, Methyl-[6-(3,4-dichlorophenyl)-8-methyl-3,4-dihydro-2H,6H-pyrimido[2,1-b][1,3]thiazine-7-carboxylate]] | 1000 mg/kg | 120 mg/kg | 8.3 | ED50 [2]: ~0.81 mg/kg
9 | CCOC(=O)C1=C(C)N=C2SCCCN2C1c1ccc(Cl)c(Cl)c1 (stereo not drawn) [Example 3, Ethyl-[6-(3,4-dichlorophenyl)-8-methyl-3,4-dihydro-2H,6H-pyrimido[2,1-b][1,3]thiazine-7-carboxylate]] | 1000 mg/kg |  |  | 
10 | COC(=O)C1=C(C)N=C2SCCCN2C1c1cccc([N+](=O)[O-])c1 (stereo not drawn) [Example 4, Methyl-[6-(3-nitrophenyl)-8-methyl-3,4-dihydro-2H,6H-pyrimido[2,1-b][1,3]thiazine-7-carboxylate]] | 370 mg/kg |  |  | 
11 | CCOC(=O)C1=C(c2ccccc2)N=C2SCCCN2C1c1ccc([N+](=O)[O-])cc1 (stereo not drawn) [Example 13, Ethyl-[8-phenyl-6-(4-nitrophenyl)-3,4-dihydro-2H,6H-pyrimido[2,1-b][1,3]thiazine-7-carboxylate]] | 1000 mg/kg |  |  | ED50 (Hexobarbital narcosis): ~200 mg/kg; Therapeutical index (Hexobarbital narcosis): 5.0
12 | CCOC(=O)C1=C(C)N=C2SCCCN2C1c1ccc(N(C)C)cc1 (stereo not drawn) [Example 22, Ethyl-[6-(4-dimethylaminophenyl)-8-methyl-3,4-dihydro-2H,6H-pyrimido[2,1-b][1,3]thiazine-7-carboxylate]] | 700 mg/kg | 10 mg/kg | 70 | 
13 | COc1ccc2c(c1)c(CC(=O)O)c(C)n2C(=O)c1ccc(Cl)cc1 [Indomethacin, reference compound] |  |  | 7.3 | ED30 ([1]; 3 h): 3 mg/kg
14 | COC(=O)C1=C(C)N=C2SCCCN2C1c1ccc(Cl)c([N+](=O)[O-])c1 (stereo not drawn) [Example 8] | 700 mg/kg |  |  | ED50 [2]: 1.21 mg/kg
15 | CCCCC1C(=O)N(c2ccccc2)N(c2ccccc2)C1=O [Phenylbutazone, reference compound] |  | 40 mg/kg |  | 
16 | CC(=O)Nc1ccc(O)cc1 [Paracetamol, reference compound] | 1180 mg/kg | 200 mg/kg | 5.9 | 
17 | CC1=C(C(=O)Nc2ccccc2)C(c2ccccc2)N2CCCSC2=N1 (stereo not drawn) [Example 5, 6-Phenyl-8-methyl-3,4-dihydro-2H,6H-pyrimido[2,1-b][1,3]thiazine-7-carboxylic anilide] | 700 mg/kg |  |  | 
18 | CC(=O)Oc1ccccc1C(=O)O [Acetylsalicylic acid, reference compound] |  |  | 6.8 | ED30 ([1]; 3 h): 200 mg/kg
19 | CCOC(=O)C1=C(C)N=C2SCCCN2C1c1c(F)cccc1Cl (stereo not drawn) [Example 2, Ethyl-[6-(2-fluoro-6-chlorophenyl)-8-methyl-3,4-dihydro-2H,6H-pyrimido[2,1-b][1,3]thiazine-7-carboxylate]] | 170 mg/kg |  |  | 
20 | COC(=O)C1=C(C)N=C2SCCCN2C1c1ccccc1OC (stereo not drawn) [Example 25, Methyl-[8-methyl-6-(2-methoxyphenyl)-3,4-dihydro-2H,6H-pyrimido[2,1-b][1,3]thiazine-7-carboxylate]] | 100 to 500 mg/kg | 10 mg/kg | 10-50 | 
21 | COC(=O)C1=C(C)N=C2SCC(C)CN2C1c1cccc([N+](=O)[O-])c1 (stereo not drawn) [Example 10] | > 1000 mg/kg |  |  | ED50 (Hexobarbital narcosis): 39 mg/kg; Therapeutical index (Hexobarbital narcosis): 25.6
22 | COC(=O)C1=C(C)N=C2SCCCN2C1C (stereo not drawn) [Example 14, Methyl-(6,8-dimethyl-3,4-dihydro-2H,6H-pyrimido-[2,1-b][1,3]thiazine-7-carboxylate)] | 400 mg/kg | 10 mg/kg | 40 | 
23 | CCCC(C)(COC(N)=O)COC(N)=O [Meprobamate, reference compound] |  |  |  | ED50 (Hexobarbital narcosis): 260 mg/kg; Therapeutical index (Hexobarbital narcosis): 4.2
24 | COC(=O)C1=C(C)N=C2SCCCN2C1c1ccc(OC)cc1 (stereo not drawn) [Example 15, Methyl-[8-methyl-6-(4-methoxyphenyl)-3,4-dihydro-2H,6H-pyrimido[2,1-b][1,3]thiazine-7-carboxylate]] | > 1000 mg/kg | 70 mg/kg | > 14.3 | 
25 | CCOC(=O)C1=C(c2ccccc2)N=C2SCCCN2C1c1ccc(OC)cc1 (stereo not drawn) [Example 19, Ethyl-[8-phenyl-6-(4-methoxyphenyl)-3,4-dihydro-2H,6H-pyrimido[2,1-b][1,3]thiazine-7-carboxylate]] |  |  |  | ED50 [2]: 1.45 mg/kg
26 | CCOC(=O)C1=C(C)N=C2SCCCN2C1c1ccc(Br)cc1 (stereo not drawn) [Example 11, Ethyl-[6-(4-bromophenyl)-8-methyl-3,4-dihydro-2H,6H-pyrimido[2,1-b][1,3]thiazine-7-carboxylate]] | > 1000 mg/kg |  |  | ED50 (Hexobarbital narcosis): ~200 mg/kg; Therapeutical index (Hexobarbital narcosis): 5.0
